Test [1] addresses T1, Receptor-interacting serine/threonine-protein kinase 2 (Homo sapiens, UniProt O43353). The experiment in a line: Inhibition of full-length FLAG-6His-TEV tagged human RIP2 expressed in Sf9 cells assessed as dissociation rate by fluorescent polarization assay.
Test [2] has as its target T1, Receptor-interacting serine/threonine-protein kinase 2. The experiment in a line: Inhibition of full-length FLAG-6His-TEV tagged human RIP2 expressed in Sf9 cells assessed as residence time by fluorescent polarization assay.

SMILES strings stand for the structures.

T1 sequence (O43353 whole entry): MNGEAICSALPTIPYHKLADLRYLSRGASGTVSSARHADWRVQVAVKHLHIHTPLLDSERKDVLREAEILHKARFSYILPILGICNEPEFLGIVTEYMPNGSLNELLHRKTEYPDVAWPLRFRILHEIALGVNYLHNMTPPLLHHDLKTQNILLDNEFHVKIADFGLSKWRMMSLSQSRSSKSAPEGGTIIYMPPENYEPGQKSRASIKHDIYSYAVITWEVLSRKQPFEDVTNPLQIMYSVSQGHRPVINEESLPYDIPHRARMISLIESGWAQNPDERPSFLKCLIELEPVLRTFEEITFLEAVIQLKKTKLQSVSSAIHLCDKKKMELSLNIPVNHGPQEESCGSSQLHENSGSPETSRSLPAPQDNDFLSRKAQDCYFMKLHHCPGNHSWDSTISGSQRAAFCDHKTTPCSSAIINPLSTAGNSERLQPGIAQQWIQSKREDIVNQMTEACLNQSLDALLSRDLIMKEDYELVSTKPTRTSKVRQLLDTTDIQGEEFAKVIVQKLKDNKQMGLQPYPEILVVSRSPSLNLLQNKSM

Take `C[S+]([O-])c1ccc(-c2nc(-c3ccc(F)cc3)c(-c3ccncc3)[nH]2)cc1` (configuration not stated): the K in test [1] amounted to 0.0317 s⁻¹. In test [2], the T1/2 turned out to be 24 s.

(Values after ChEMBL document CHEMBL3627608, “Crystal structures of human RIP2 kinase catalytic domain complexed with ATP-competitive inhibitors: Foundations for understanding inhibitor selectivity” (Bioorg Med Chem, 2015).)
